Measured values: patent US20040147545A1, “Derivatives of oxazolidinones as antibacterial agents” (priority 2001, published 2004)
Converted amounts (≈) assume the structure as drawn.

Legend:
Type in all cases: cell-based
[1] = tested on: S. agalactiae; experiment: Antibacterial activity, microdilution in culture broth (NCCLS), strain D; details: Streptococcus agalactiae, G (+) hospital strain, inoculum 5×10^5 UFC/ml
Source text: (§1) The antibacterial activity of the new synthesised compounds on the various strains of the bacterial species was implemented using the technique of microdilution in culture broth according to the regulations of the National Committee for Clinical Laboratory Standards (NCCLS), (NCCLS. 1993. Methods for dilution antimicrobial susceptibility tests for bacteria that grow aerobically. Approved standard M7-A3. NCCLS, Vilanova. Pa., and NCCLS. 1993. Methods for dilution antimicrobial susceptibility tests for anaerobic bacteria […]. Approved standard M1-A3. NCCLS, Vilanova. Pa.).
(§2) The inoculum used was 5×10^5 UFC/ml following dilution of the cultures overnight in the exponential phase of bacterial growth.
(§3) The MIC expressed in mg/l was defined as the minimum concentration of antibiotic which inhibited any visible growth.
(§4) Linezolid was included as comparative compound.
(§5) The compounds were tested on the strains of G(+) and G(−) bacteria set out in Table 1, in which: […]

[2] = tested on: S. pyogenes; experiment: Antibacterial activity, microdilution in culture broth (NCCLS), strain F; details: Streptococcus pyogenes, G (+) hospital strain, inoculum 5×10^5 UFC/ml
Source text: as §1, §2, §3, §5

[3] = tested on: S. aureus resistant to meticillin; experiment: Antibacterial activity, microdilution in culture broth (NCCLS), strain A; details: Staphylococcus aureus, G (+) hospital strain, inoculum 5×10^5 UFC/ml
Source text: as §1, §2, §3, §4, §5

[4] = tested on: E. coli; experiment: Antibacterial activity, microdilution in culture broth (NCCLS), strain H; details: Escherichia coli, G (−) hospital strain, inoculum 5×10^5 UFC/ml
Source text: as §1, §2, §3, §4, §5

[5] = tested on: E. faecalis resistant to vancomycin; experiment: Antibacterial activity, microdilution in culture broth (NCCLS), strain B; details: Enterococcus faecalis, G (+) hospital strain, inoculum 5×10^5 UFC/ml
Source text: as §1, §2, §3, §4, §5

[6] = tested on: B. fragilis; experiment: Antibacterial activity, microdilution in culture broth (NCCLS), strain G (anaerobic); details: Bacteroides fragilis, anaerobic hospital strain, inoculum 5×10^5 UFC/ml
Source text: as §1, §2, §3, §4, §5

[7] = tested on: M. Catarrahalis; experiment: Antibacterial activity, microdilution in culture broth (NCCLS), strain J; details: G (−) hospital strain, inoculum 5×10^5 UFC/ml
Source text: as §1, §2, §3, §4, §5

[8] = tested on: S. epidermidis; experiment: Antibacterial activity, microdilution in culture broth (NCCLS), strain E; details: Staphylococcus epidermidis, G (+) hospital strain, inoculum 5×10^5 UFC/ml
Source text: as §1, §2, §3, §4, §5

[9] = tested on: H. influenzae; experiment: Antibacterial activity, microdilution in culture broth (NCCLS), strain I; details: Haemophilus influenzae, G (−) hospital strain, inoculum 5×10^5 UFC/ml
Source text: as §1, §2, §3, §4, §5

[10] = tested on: S. pneumoniae resistant to penicillin; experiment: Antibacterial activity, microdilution in culture broth (NCCLS), strain C; details: Streptococcus pneumoniae, G (+) hospital strain, inoculum 5×10^5 UFC/ml
Source text: as §1, §2, §3, §4, §5

| Structure (SMILES) | MIC [1] [µg/mL] | MIC [2] [µg/mL] | MIC [3] [µg/mL] | MIC [4] [µg/mL] | MIC [5] [µg/mL] | MIC [6] [µg/mL] | MIC [7] [µg/mL] | MIC [8] [µg/mL] | MIC [9] [µg/mL] | MIC [10] [µg/mL] |
| --- | --- | --- | --- | --- | --- | --- | --- | --- | --- | --- |
| CCNC(=O)NC[C@H]1CN(c2ccc(N3CCN(c4cc5c(cc4F)c(=O)c(C(=O)O)cn5C4CC4)CC3)c(F)c2)C(=O)O1 [EXAMP. 10, 1-cyclopropyl-7-[4-(4-{5-(S)-[(3-ethyl-ureido)-methyl]-2-oxo-oxazolidin-3-yl}-2-fluoro-phenyl)-piperazin-1-yl]-6-fluoro-4-oxo-1,4-dihydro-quinoline-3-carboxylic Acid] | 1 (≈ 1.64 µM) | 1 (≈ 1.64 µM) | 1 (≈ 1.64 µM) | 64 (≈ 105 µM) | 2 (≈ 3.28 µM) | 4 (≈ 6.55 µM) | 2 (≈ 3.28 µM) | 0.25 (≈ 0.409 µM) | 4 (≈ 6.55 µM) | 1 (≈ 1.64 µM) |
| CC(=O)NC[C@H]1CN(c2ccc(N3CCN(c4c(F)cc5c(=O)c(C(=O)O)cn6c5c4OCC6C)CC3)c(F)c2)C(=O)O1 (stereo partly drawn) [EXAMP. 7, 9-(4-{4-[5-(S)-(acetylamino-methyl)-2-oxo-oxazolidin-3-yl]-2-fluoro-phenyl}-piperazin-1-yl)-8-fluoro-3-methyl-6-oxo-2,3-dihydro-6H-1-oxa-3a-aza-phenalene-5-carboxylic Acid] | 0.5 (≈ 0.837 µM) | 0.25 (≈ 0.418 µM) | 0.25 (≈ 0.418 µM) | 8 (≈ 13.4 µM) | 0.5 (≈ 0.837 µM) | 2 (≈ 3.35 µM) | 1 (≈ 1.67 µM) | 0.25 (≈ 0.418 µM) | 4 (≈ 6.69 µM) | 0.25 (≈ 0.418 µM) |
| CC(=O)NC[C@H]1CN(c2ccc(N(C)C3CCN(c4c(F)cc5c(=O)c(C(=O)O)cn6c5c4OCC6C)C3)c(F)c2)C(=O)O1 (stereo partly drawn) [EXAMP. 6, 9-[3-({4-[5-(S)-(acetylamino-methyl)-2-oxo-oxazolidin-3-yl]-2-fluoro-phenyl}-methyl-amino)-pyrrolidin-1-yl]-8-fluoro-3-methyl-6-oxo-2,3-dihydro-6H-1-oxa-3a-aza-phenalen-5-carboxylic Acid] | 0.5 (≈ 0.818 µM) | 1 (≈ 1.64 µM) | 2 (≈ 3.27 µM) | 2 (≈ 3.27 µM) | 1 (≈ 1.64 µM) | 16 (≈ 26.2 µM) | 0.25 (≈ 0.409 µM) | 0.5 (≈ 0.818 µM) | < 0.125 | 1 (≈ 1.64 µM) |
| CNC(=S)NC[C@H]1CN(c2ccc(N3CCN(c4cc5c(cc4F)c(=O)c(C(=O)O)cn5C4CC4)CC3)c(F)c2)C(=O)O1 [EXAMP. 9, 1-cyclopropyl-6-fluoro-7-[4-(2-fluoro-4-{5-(S)-[(3-methyl-thioureido)-methyl]-2-oxo-oxazolidin-3-yl}-phenyl)-piperazin-1-yl]-4-oxo-1,4-dihydro-quinoline-3-carboxylic Acid] | < 0.125 | < 0.125 | < 0.125 | > 64 | < 0.125 | 0.5 (≈ 0.816 µM) | 0.25 (≈ 0.408 µM) | < 0.125 | 1 (≈ 1.63 µM) | < 0.125 |
| CC(=O)NC[C@H]1CN(c2ccc(N3CCN(c4c(F)cc5c(=O)c(C(=O)O)cn6c5c4OCC6C)CC3)cc2)C(=O)O1 (stereo partly drawn) [EXAMP. 5, 9-(4-{4-[5-(S)-(acetylamino-methyl)-2-oxo-oxazolidin-3-yl]-phenyl}-piperazin-1-yl)-8-fluoro-3-methyl-6-oxo-2,3-dihydro-6H-1-oxa-3a-aza-phenalen-5-carboxylic Acid] | 0.5 (≈ 0.863 µM) | 0.5 (≈ 0.863 µM) | 0.5 (≈ 0.863 µM) | 4 (≈ 6.9 µM) | 0.5 (≈ 0.863 µM) | 2 (≈ 3.45 µM) | 1 (≈ 1.73 µM) | 0.25 (≈ 0.431 µM) | 1 (≈ 1.73 µM) | 0.5 (≈ 0.863 µM) |
| CCn1cc(C(=O)O)c(=O)c2cc(F)c(N3CCN(c4ccc(N5C[C@H](CNC(C)=O)OC5=O)cc4F)CC3)cc21 [EXAMP. 4, 7-(4-{4-[5-(S)-(acetylamino-methyl)-2-oxo-oxazolidin-3-yl]-2-fluoro-phenyl}-piperazin-1-yl)-1-ethyl-6-fluoro-4-oxo-1,4-dihydro-quinoline-3-carboxylic Acid] | < 0.125 | < 0.125 | 0.25 (≈ 0.439 µM) | 16 (≈ 28.1 µM) | 0.25 (≈ 0.439 µM) | 0.5 (≈ 0.878 µM) | 1 (≈ 1.76 µM) | < 0.125 | 2 (≈ 3.51 µM) | < 0.125 |
| CC(=O)NC[C@H]1CN(c2ccc(N3CCN(c4cc5c(cc4F)c(=O)c(C(=O)O)cn5C4CC4)CC3)c(F)c2)C(=O)O1 [EXAMP. 1 + 8, 7-(4-{4-[5-(S)-(acetylamino-methyl)-2-oxo-oxazolidin-3-yl]-2-fluoro-phenyl}-piperazin-1-yl)-1-cyclopropyl-6-fluoro-4-oxo-1,4-dihydro-quinoline-3-carboxylic Acid] | 0.125 | < 0.125 | 0.25 | 8 | 0.125 | 0.25 | 0.25 | 0.125 | 0.25 | < 0.125 |

Next, values leading:

| MIC [1] [µg/mL] | MIC [2] [µg/mL] | MIC [3] [µg/mL] | MIC [4] [µg/mL] | MIC [5] [µg/mL] | MIC [6] [µg/mL] | MIC [7] [µg/mL] | MIC [8] [µg/mL] | MIC [9] [µg/mL] | MIC [10] [µg/mL] | Structure (SMILES) |
| --- | --- | --- | --- | --- | --- | --- | --- | --- | --- | --- |
| < 0.125 | < 0.125 | 0.25 (≈ 0.429 µM) | 64 (≈ 110 µM) | < 0.125 | 0.25 (≈ 0.429 µM) | 0.5 (≈ 0.858 µM) | < 0.125 | 2 (≈ 3.43 µM) | < 0.125 | CC(=O)NC[C@H]1CN(c2ccc(N3CCN(c4nc5c(cc4F)c(=O)c(C(=O)O)cn5C4CC4)CC3)c(F)c2)C(=O)O1 [EXAMP. 21, 7-(4-{4-[5-(S)-(acetylamino-methyl)-2-oxo-oxazolidin-3-yl]-2-fluoro-phenyl}-piperazin-1-yl)-1-cyclopropyl-6-fluoro-4-oxo-1,4-dihydro-[1,8]Naphthyridine-3-carboxylic Acid] |
| 8 (≈ 12.5 µM) | 8 (≈ 12.5 µM) | 4 (≈ 6.27 µM) | 32 (≈ 50.2 µM) | 8 (≈ 12.5 µM) | > 64 | 2 (≈ 3.14 µM) | 4 (≈ 6.27 µM) | 1 (≈ 1.57 µM) | 4 (≈ 6.27 µM) | C#CC(O)[C@H]1CN(c2ccc(N3CCN(c4nc5c(cc4F)c(=O)c(C(=O)O)cn5-c4ccc(F)cc4F)CC3)c(F)c2)C(=O)O1 (stereo partly drawn) [EXAMP. 19, 1-(2,4-difluoro-phenyl)-6-fluoro-7-(4-{2-fluoro-4-[5-(R)-(1-hydroxy-prop-2-inyl)-2-oxo-oxazolidin-3-yl]-phenyl}-piperazin-1-yl)-4-oxo-1,4-dihydro-[1,8]Naphthyridine-3-carboxylic Acid] |
| 2 (≈ 5.93 µM) |  | 2 (≈ 5.93 µM) | > 64 | 2 (≈ 5.93 µM) | 2 (≈ 5.93 µM) | 16 (≈ 47.4 µM) | 1 (≈ 2.96 µM) | 16 (≈ 47.4 µM) | 1 (≈ 2.96 µM) | CC(=O)NC[C@H]1CN(c2ccc(N3CCOCC3)c(F)c2)C(=O)O1 [Linezolid, reference compound] |
| 1 (≈ 1.64 µM) | 1 (≈ 1.64 µM) | 4 (≈ 6.55 µM) | > 64 | 2 (≈ 3.28 µM) | 8 (≈ 13.1 µM) | 8 (≈ 13.1 µM) | 2 (≈ 3.28 µM) | > 64 | 1 (≈ 1.64 µM) | CCOC(=O)c1cn(C2CC2)c2nc(N3CCN(c4ccc(N5C[C@H](CNC(C)=O)OC5=O)cc4F)CC3)c(F)cc2c1=O [EXAMP. 16, 7-(4-{4-[5-(S)-(acetylamino-methyl)-2-oxo-oxazolidin-3-yl]-2-fluoro-phenyl}-piperazin-1-yl)-1-cyclopropyl-6-fluoro-4-oxo-1,4-dihydro-[1,8]Naphthyridine-3-carboxylic Acid Ethyl Ester] |
| 0.5 (≈ 0.789 µM) | 1 (≈ 1.58 µM) | 2 (≈ 3.16 µM) | > 64 | 2 (≈ 3.16 µM) | 4 (≈ 6.31 µM) | 4 (≈ 6.31 µM) | 1 (≈ 1.58 µM) | 64 (≈ 101 µM) | 0.5 (≈ 0.789 µM) | CCOC(=O)c1cn(CCF)c2c(F)c(N3CCN(c4ccc(N5C[C@H](CNC(C)=O)OC5=O)cc4F)CC3)c(F)cc2c1=O [EXAMP. 17, 7-(4-{4-[5-(S)-(acetylamino-methyl)-2-oxo-oxazolidin-3-yl]-2-fluoro-phenyl}-piperazin-1-yl)-6,8-difluoro-1-(2-fluoro-ethyl)-4-oxo-1,4-dihydro-quinoline-3-carboxylic Acid Ethyl Ester] |
| 1 (≈ 1.53 µM) | 1 (≈ 1.53 µM) | 1 (≈ 1.53 µM) | > 64 | 2 (≈ 3.06 µM) | > 64 | 4 (≈ 6.11 µM) | 0.5 (≈ 0.764 µM) | 2 (≈ 3.06 µM) | 1 (≈ 1.53 µM) | CC(=O)NC[C@H]1CN(c2ccc(N3CCN(c4nc5c(cc4F)c(=O)c(C(=O)O)cn5-c4ccc(F)cc4F)CC3)c(F)c2)C(=O)O1 [EXAMP. 20, 7-(4-{4-[5-(S)-(acetylamino-methyl)-2-oxo-oxazolidin-3-yl]-2-fluoro-phenyl}-piperazin-1-yl)-1-(2,4-difluoro-phenyl)-6-fluoro-4-oxo-1,4-dihydro-[1,8]Naphthyridine-3-carboxylic Acid] |
